Experimental data as given in US20230339937A1, “CONDENSED RING COMPOUNDS THAT INHIBIT H-PGDS” (SATO PHARMACEUTICAL CO., LTD., priority 2020, published 2023).
Counter-ions that a name gives are not always drawn.

Molecular target: T1, Recombinant human H-PGDS (Homo sapiens, UniProt O60760)
T1 construct: made in house; host or cells: E. coli
Experiment: H-PGDS inhibitory activity (prostaglandin D2 production from prostaglandin H2, measured by LC-MS/MS)
Assay type: biochemical
Conditions: recombinant human H-PGDS 1.0 nM expressed in E. coli; prostaglandin H2 25 μM; preincubated 15 minutes on ice, reacted on ice for 1 minute; concentration that inhibits prostaglandin D2 production by 50%
Procedure: The H-PGDS inhibitory activity of each Example compound was measured according to the method reported by LIN, Jiang. et al. (NO 2007/041634).
Recombinant human H-PGDS (final concentration: 1.0 nM) expressed in E. coli was mixed in an assay buffer containing 20 mM Tris-HCl (pH 8.0), 2 mM magnesium chloride, 2 mM reduced glutathione, and 0.5 mg/mL γ-globulin, and 150 μL of the mixture was dispensed into a 8-strip PCR tube (BM Equipment Co., Ltd.). Test compounds (Example compounds) (16.5 μL) at various concentrations dissolved in DMSO were added and the mixture was preincubated for 15 minutes on ice.
Prostaglandin H2 (final concentration: 25 μM) (Cayman Chemical) was dispensed into another 8-strip PCR tube, and the solvent was dried and solidified using a vacuum concentrator (Thermo Fisher Scientific). To the dried and solidified prostaglandin H2 was added 50 μL of the assay buffer containing H-PGDS and each test compound after the preincubation, and the mixture was reacted on ice for 1 minute. 45 μL of this mixture was added to 45 μL of a stop solution (50 mM aqueous citric acid solution containing iron chloride at a final concentration of 4 mg/mL) to stop the reaction. Then, the reaction solution was deproteinized, added to a 96 square deep well plate (SHONANMARUHACHI STEC Co., Ltd.), and the prostaglandin D2 concentration in the reaction solution was measured by LC-MS/MS. ACQUITY (registered trademark) TQD (Waters) was used as a measuring instrument.
Prostaglandin Da production activity (f) in the group with each test compound when a value obtained by subtracting the amount of production of prostaglandin D2 in the group without enzyme, which is non-specific production of prostaglandin D2, from the amount of production of prostaglandin Da in the group without test compound (DMSO-addition group) in each 8-strip PCR tube is 100% was calculated.

T1 sequence (O60760 whole entry): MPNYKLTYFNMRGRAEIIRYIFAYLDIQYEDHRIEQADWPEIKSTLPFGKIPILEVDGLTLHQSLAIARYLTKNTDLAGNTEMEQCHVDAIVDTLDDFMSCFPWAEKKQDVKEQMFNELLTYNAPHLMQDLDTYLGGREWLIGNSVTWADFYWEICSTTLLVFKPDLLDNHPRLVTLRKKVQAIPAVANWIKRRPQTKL

SMILES	IC50 [nM]
CCCCNC(=O)c1ccc(-c2nccc3occc23)cc1 [Example 75, N-butyl-4-(furo[3,2-c]pyridin-4-yl)benzamide]	20
CCCCCCNC(=O)c1ccc(-c2nccc3occc23)cc1 [Example 76, 4-(furo[3,2-c]pyridin-4-yl)-N-hexylbenzamide]	13
O=C(NCc1cccnc1)c1ccc(-c2nccc3occc23)cc1 [Example 77, 4-(furo[3,2-c]pyridin-4-yl)-N-(pyridin-3-ylmethyl) benzamide]	24
COCCNC(=O)c1ccc(-c2nccc3occc23)cc1 [Example 78, 4-(furo[3,2-c]pyridin-4-yl)-N-(2-methoxyethyl) benzamide]	50
COCCCNC(=O)c1ccc(-c2nccc3occc23)cc1 [Example 79, 4-(furo[3,2-c]pyridin-4-yl)-N-(3-methoxypropyl) benzamide]	27
CCOCCNC(=O)c1ccc(-c2nccc3occc23)cc1 [Example 80, N-(2-ethoxyethyl)-4-(furo[3,2-c]pyridin-4-yl)benzamide]	32
O=C(NCC1CCOC1)c1ccc(-c2nccc3occc23)cc1 (centres unmarked) [Example 81, 4-(furo[3,2-c]pyridin-4-yl)-N-[(tetrahydrofuran-3-yl)methyl] benzamide]	11
O=C(NCC1CCOCC1)c1ccc(-c2nccc3occc23)cc1 [Example 82, 4-(furo[3,2-c]pyridin-4-yl)-N-[(tetrahydro-2H-pyran-4-yl)methyl] benzamide]	11
O=C(NCC1CC1)c1ccc(-c2nccc3occc23)cc1 [Example 83, N-(cyclopropyl-methyl)-4-(furo[3,2-c]pyridin-4-yl)benzamide]	15
O=C(NCC1CCCC1)c1ccc(-c2nccc3occc23)cc1 [Example 84, N-(cyclopenthyl-methyl)-4-(furo[3,2-c]pyridin-4-yl)benzamide]	14
O=C(NCC1CCCCC1)c1ccc(-c2nccc3occc23)cc1 [Example 85, N-(cyclohexyl-methyl)-4-(furo[3,2-c]pyridin-4-yl)benzamide]	32
O=C(NC1CCC1)c1ccc(-c2nccc3occc23)cc1 [Example 86, N-cyclobutyl-4-(furo[3,2-c]pyridin-4-yl)benzamide]	21
O=C(NC1CCCC1)c1ccc(-c2nccc3occc23)cc1 [Example 87, N-cyclopenthyl-4-(furo[3,2-c]pyridin-4-yl)benzamide]	12
O=C(NC1CCCCC1)c1ccc(-c2nccc3occc23)cc1 [Example 88, N-cyclohexyl-4-(furo[3,2-c]pyridin-4-yl)benzamide]	4.2
O=C(Nc1ccccc1)c1ccc(-c2nccc3occc23)cc1 [Example 89, 4-(furo[3,2-c]pyridin-4-yl)-N-phenylbenzamide]	3.7
O=C(NCCCCCCO)c1ccc(-c2nccc3occc23)cc1 [Example 90, 4-(furo[3,2-c]pyridin-4-yl)-N-(6-hydroxyhexyl) benzamide]	15
CCC(O)CNC(=O)c1ccc(-c2nccc3occc23)cc1 (centres unmarked) [Example 91, 4-(furo[3,2-c]pyridin-4-yl)-N-(2-hydroxybutyl) benzamide]	32
CC(C)(O)CNC(=O)c1ccc(-c2nccc3occc23)cc1 [Example 92, 4-(furo[3,2-c]pyridin-4-yl)-N-(2-hydroxy-2-methylpropyl) benzamide]	22
O=C(NCc1ccccn1)c1ccc(-c2nccc3occc23)cc1 [Example 93, 4-(furo[3,2-c]pyridin-4-yl)-N-(pyridin-2-ylmethyl) benzamide]	32
O=C(NCC1CCCO1)c1ccc(-c2nccc3occc23)cc1 (centres unmarked) [Example 94, 4-(furo[3,2-c]pyridin-4-yl)-N-[(tetrahydro-furan-2-yl)methyl] benzamide]	12
O=C(NC1CC1)c1ccc(-c2nccc3occc23)cc1 [Example 95, N-cyclopropyl-4-(furo[3,2-c]pyridin-4-yl)benzamide]	8.7
O=C(NCCCCO)c1ccc(-c2nccc3occc23)cc1 [Example 96, 4-(furo[3,2-c]pyridin-4-yl)-N-(4-hydroxybutyl) benzamide]	17

SMILES	IC50 [nM]
O=C(NC1CCc2ccccc21)c1ccc(-c2nccc3occc23)cc1 (centres unmarked) [Example 97, N-(2,3-dihydro-1H-inden-1-yl)-4-(furo[3,2-c]pyridin-4-yl)benzamide]	2.8
CC(C)N(CCNC(=O)c1ccc(-c2nccc3occc23)cc1)C(C)C [Example 98, N-[2-(diisopropylamino)ethyl]-4-(furo[3,2-c]pyridin-4-yl)benzamide dihydrochloride]	107
Cn1nnnc1N1CCC(NC(=O)c2ccc(-c3nccc4occc34)cc2)CC1 [Example 99, 4-(furo[3,2-c]pyridin-4-yl)-N-[1-(1-methyl-1H-tetrazol-5-yl)piperidin-4-yl]benzamide]	1.6
O=C(Nc1cc(-c2ccccc2)[nH]n1)c1ccc(-c2nccc3occc23)cc1 [Example 100, 4-(furo[3,2-c]pyridin-4-yl)-N-(5-phenyl-1H-pyrazol-3-yl)benzamide]	19
O=C(NC1CCN(c2nccs2)CC1)c1ccc(-c2nccc3occc23)cc1 [Example 101, 4-(furo[3,2-c]pyridin-4-yl)-N-[1-(thiazol-2-yl)piperidin-4-yl]benzamide]	1
NS(=O)(=O)c1ccc(NC(=O)c2ccc(-c3nccc4occc34)cc2)cc1 [Example 102, 4-(furo[3,2-c]pyridin-4-yl)-N-(4-sulfamoylphenyl) benzamide]	1.8
O=C(Nc1cccnc1)c1ccc(-c2nccc3occc23)cc1 [Example 103, 4-(furo[3,2-c]pyridin-4-yl)-N-(pyridin-3-yl)benzamide]	2.1
O=C(Nc1cc(C2CC2)[nH]n1)c1ccc(-c2nccc3occc23)cc1 [Example 104, N-(5-cyclopropyl-1H-pyrazol-3-yl)-4-(furo[3,2-c]pyridin-4-yl)benzamide]	8
NS(=O)(=O)c1cccc(NC(=O)c2ccc(-c3nccc4occc34)cc2)c1 [Example 105, 4-(furo[3,2-c]pyridin-4-yl)-N-(3-sulfamoylphenyl) benzamide]	2.3
CS(=O)(=O)c1cccc(NC(=O)c2ccc(-c3nccc4occc34)cc2)c1 [Example 106, 4-(furo[3,2-c]pyridin-4-yl)-N-[3-(methylsulfonyl)phenyl]benzamide]	3.7
O=C(Nc1ccccn1)c1ccc(-c2nccc3occc23)cc1 [Example 107, 4-(furo[3,2-c]pyridin-4-yl)-N-(pyridin-2-yl)benzamide]	19
O=C(Nc1ccncc1)c1ccc(-c2nccc3occc23)cc1 [Example 108, 4-(furo[3,2-c]pyridin-4-yl)-N-(pyridin-4-yl)benzamide]	5
CS(=O)(=O)c1ccc(NC(=O)c2ccc(-c3nccc4occc34)cc2)cc1 [Example 109, 4-(furo[3,2-c]pyridin-4-yl)-N-[4-(methylsulfonyl)phenyl]benzamide]	2.9
O=C(Nc1ccccc1F)c1ccc(-c2nccc3occc23)cc1 [Example 110, N-(2-fluorophenyl)-4-(furo[3,2-c]pyridin-4-yl)benzamide]	5.7
O=C(Nc1ccc(F)cc1)c1ccc(-c2nccc3occc23)cc1 [Example 111, N-(4-fluorophenyl)-4-(furo[3,2-c]pyridin-4-yl)benzamide]	5.5
O=C(Nc1cccc(F)c1)c1ccc(-c2nccc3occc23)cc1 [Example 112, N-(3-fluorophenyl)-4-(furo[3,2-c]pyridin-4-yl)benzamide]	3.4
O=C(NC1CN(c2ccccn2)C1)c1ccc(-c2nccc3occc23)cc1 [Example 113, 4-(furo[3,2-c]pyridin-4-yl)-N-[1-(pyridin-2-yl)azetidin-3-yl]benzamide]	2.5
O=C(NC[C@H]1CC[C@@H](O)CC1)c1ccc(-c2nccc3occc23)cc1 [Example 114, 4-(furo[3,2-c]pyridin-4-yl)-N-[(cis-4-hydroxycyclohexyl)methyl]benzamide]	25
O=C(NC1CCN(c2ccccc2)CC1)c1ccc(-c2nccc3occc23)cc1 [Example 115, 4-(furo[3,2-c]pyridin-4-yl)-N-(1-phenylpiperidin-4-yl)benzamide]	1.1
Cc1cc(NC(=O)c2ccc(-c3nccc4occc34)cc2)ccc1S(N)(=O)=O [Example 116, 4-(furo[3,2-c]pyridin-4-yl)-N-(3-methyl-4-sulfamoylphenyl) benzamide]	1.6
Cc1cc(S(N)(=O)=O)ccc1NC(=O)c1ccc(-c2nccc3occc23)cc1 [Example 117, 4-(furo[3,2-c]pyridin-4-yl)-N-(2-methyl-4-sulfamoylphenyl) benzamide]	12
O=C(NC1CCN(c2ccccn2)CC1)c1ccc(-c2nccc3occc23)cc1 [Example 118, 4-(furo[3,2-c]pyridin-4-yl)-N-[1-(pyridin-2-yl)piperidin-4-yl]benzamide]	0.45
